Data published in paper PMC5405074, “Receptor-Mediated Melanoma Targeting with Radiolabeled α-Melanocyte-Stimulating Hormone: Relevance of the Net Charge of the Ligand” (Frontiers in Endocrinology, 2017).
Where two headings read alike, the source gives them in different places. Non-standard residues stand in square brackets, D forms with d. Residues, ends and D or L forms follow the SMILES beside them. *: point of attachment. DOTA = O=C(O)CN1CCN(CC(=O)O)CCN(CC(=O)*)CCN(CC(=O)O)CC1; pY = N[C@@H](Cc1ccc(OP(=O)(O)O)cc1)C(=O)O; Nle = CCCC[C@H](N)C(=O)O

Tests used:
[1] = system: B16-F1 tumor-bearing mice; assay: Biodistribution of ^111In-labeled peptides in B16-F1 melanoma-bearing mice; format: in vivo, mouse (B6D2F1)
Protocol: (§1) About 5 × 10^5 B16-F1 cells were implanted subcutaneously to female B6D2F1 mice (C57BL/6 × DBA/2F1 hybrids; breeding pairs obtained from IFFA-CREDO, France). Seven days later, 185 kBq of ^111In-labeled ligand in 200 µL PBS/0.1% BSA were injected intravenously into the lateral tail vein of each mouse. Control mice were injected with a mixture of the tracer and 50 µg α-MSH to determine the non-specific uptake of radioligand. The animals were sacrificed 4, 24, and 48 h postinjection, dissected, and the tissues of interest collected, rinsed of excess blood, and weighed. The radioactivity emitted by each organ was measured in a γ-counter to determine the tissue uptake as percentage of the injected dose (ID) per gram of tissue. The total of injected radioactivity per animal was determined by extrapolation from the counts of a standard collected from the injection solution for each animal. Urine samples were collected at 10, 15, and 20 min and 4 h after injection and kept frozen at −80°C until use. Urine (1 vol) was mixed with methanol (2 vol) to precipitate proteins, and the supernatant was analyzed by RP-HPLC/γ-detection, as described in Ref. ([12]).
(§2) Results are expressed as means ± SEM, unless otherwise stated. The statistical evaluation of data was performed using the one- or two-way ANOVA test. When significant overall effects were obtained by ANOVA, multiple comparisons were made with the Bonferroni correction. P < 0.05 was considered statistically significant. The area under the curve (AUC) was calculated with the GraphPad Prism 6 software for the indicated period of time, using the mean tissue uptake value at each time point.

[2] = as above; format: in vivo, mouse (B6D2F1); conditions: female, iv, total radioactivity, ^111In-labeled peptide, 185 kBq i.v., mean ± SEM of three experiments, n = 5 animals each
Protocol: as §1, §2

MC1R (HBL cells) = target: T1, MC1R (HBL cells) (Homo sapiens, UniProt Q01726); assay: Competition binding assay with [^125I]-NDP-MSH, human HBL melanoma cells
T1 construct: endogenous in cells; host or cells: human HBL melanoma cell line
T1 sequence (Q01726 whole entry): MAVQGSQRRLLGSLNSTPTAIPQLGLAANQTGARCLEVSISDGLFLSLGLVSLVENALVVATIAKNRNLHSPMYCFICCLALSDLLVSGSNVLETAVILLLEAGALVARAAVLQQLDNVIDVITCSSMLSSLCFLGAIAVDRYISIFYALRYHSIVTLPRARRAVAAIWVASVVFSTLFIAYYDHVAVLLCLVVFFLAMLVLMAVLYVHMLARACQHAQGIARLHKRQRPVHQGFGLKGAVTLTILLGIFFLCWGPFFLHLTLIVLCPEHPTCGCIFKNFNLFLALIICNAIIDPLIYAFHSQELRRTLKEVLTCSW
Protocol: (§3) Triplicates of 100-µL volumes of B16-F1 or HBL cell suspensions adjusted to 4 × 10^6/mL were incubated in 96-well U-bottom microplates (Falcon 3077). The binding medium consisted of MEM with Earle’s salts, 0.2% BSA, and 0.3 mM 1,10-phenanthroline. This binding medium was called mouse binding medium (MBM). Triplicates of competitor peptide solution (50 µL) yielding final concentrations ranging from 1 × 10^−6 to 1 × 10^−12 M were added. [^125I]NDP-MSH (50,000 cpm) in 50 µL was finally added to each well. The plates were incubated at 15°C for 3 h for B16-F1 cells and at 37°C for 2 h for HBL cells. The incubation was stopped by covering the plates with ice for 10 min. A cell harvester was used to collect cell-bound radioactivity on filters (Packard Unifilter-96 GF/B). The collected radioactivity was counted on a TopCount scintillation counter (Packard) after addition of 50 µL Microscint-20 scintillation cocktail (Perkin Elmer). The IC50 values were calculated with the Prism 6 software (GraphPad Software Inc., San Diego CA, USA).
(§4) The binding affinity of the peptides to MC1R was assessed by competition binding assays using [^125I]-NDP-MSH as radioligand and both murine B16-F1 and human HBL cells.

MC1R (B16-F1 cells) = target: T2, MC1R (B16-F1 cells) (Mus musculus, UniProt Q01727); assay: Competition binding assay with [^125I]-NDP-MSH, mouse B16-F1 melanoma cells
T2 construct: endogenous in cells; host or cells: mouse B16-F1 melanoma cells
T2 sequence (Q01727 whole entry): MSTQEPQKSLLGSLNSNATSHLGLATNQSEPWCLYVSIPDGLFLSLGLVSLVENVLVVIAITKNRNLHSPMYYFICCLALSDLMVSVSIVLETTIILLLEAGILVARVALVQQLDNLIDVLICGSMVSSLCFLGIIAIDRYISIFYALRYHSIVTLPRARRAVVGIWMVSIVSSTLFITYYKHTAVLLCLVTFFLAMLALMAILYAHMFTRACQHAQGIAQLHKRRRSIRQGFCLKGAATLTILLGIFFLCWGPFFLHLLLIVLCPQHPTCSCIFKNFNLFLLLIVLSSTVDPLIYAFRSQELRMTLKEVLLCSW
Protocol: as §3, §4

[3] = ^111In-labeled peptide, 185 kBq i.v., 4 h, mean ± SEM of three experiments, n = 5 animals each
[4] = B6D2F1 (C57BL/6 × DBA/2F1 hybrids), mouse, blood, read-out: Blood uptake
[5] = B6D2F1 (C57BL/6 × DBA/2F1 hybrids), mouse, muscle, read-out: Muscle uptake
[6] = B6D2F1 (C57BL/6 × DBA/2F1 hybrids), mouse, skin, read-out: Skin uptake
[7] = B6D2F1 (C57BL/6 × DBA/2F1 hybrids), mouse, tumor, read-out: Tumor uptake
[8] = B6D2F1, mouse, bone, read-out: Bone uptake
[9] = B6D2F1, mouse, heart, read-out: Heart uptake
[10] = B6D2F1, mouse, kidney, read-out: Kidney uptake
[11] = B6D2F1, mouse, liver, read-out: Liver uptake
[12] = B6D2F1, mouse, lung, read-out: Lung uptake
[13] = B6D2F1, mouse, pancreas, read-out: Pancreas uptake
[14] = B6D2F1, mouse, small intestines, read-out: Small intestines uptake
[15] = B6D2F1, mouse, spleen, read-out: Spleen uptake
[16] = B6D2F1, mouse, stomach, read-out: Stomach uptake

## CCCC[C@H](NC(=O)[C@H](Cc1ccc(OP(=O)(O)O)cc1)NC(=O)CNC(=O)CN1CCN(CC(=O)O)CCN(CC(=O)O)CCN(CC(=O)O)CC1)C(=O)N[C@@H](CC(=O)O)C(=O)N[C@@H](Cc1c[nH]cn1)C(=O)N[C@H](Cc1ccccc1)C(=O)N[C@@H](CCCNC(=N)N)C(=O)N[C@@H](Cc1c[nH]c2ccccc12)C(N)=O [DOTA-Phospho-MSH2-9, DOTA-Gly-Tyr(P)-Nle-Asp-His-D-Phe-Arg-Trp-NH2] ({DOTA}-G[pY][Nle]DH[dF]RW-NH2)
[1]; AUC (4–48 h) or overall comparison
  Tumor-to-kidney ratio compared with other peptides (in words): best tumor-to-kidney ratio of all linear MSH peptides so far investigated
[1]; [3]
  Kidney uptake: 2.68 ± 0.18 %ID/g
  Tumor uptake: 7.33 ± 0.47 %ID/g
[2]; [4]
  tissue uptake at 4 h: 0.02 %ID/g
  tissue uptake at 24 h: 0.01 %ID/g
[2]; B6D2F1 (C57BL/6 × DBA/2F1 hybrids), mouse, bone, read-out: Bone uptake
  tissue uptake at 48 h: 0.06 ± 0.01 %ID/g
[2]; [5]
  tissue uptake at 4 h: 0.02 %ID/g
  tissue uptake at 24 h: 0.02 %ID/g
  tissue uptake at 48 h: 0.02 %ID/g
[2]; [6]
  tissue uptake at 4 h: 0.12 ± 0.03 %ID/g
  tissue uptake at 24 h: 0.07 ± 0.02 %ID/g
  tissue uptake at 48 h: 0.08 ± 0.02 %ID/g
[2]; [7]
  tissue uptake at 24 h: 2.92 ± 0.12 %ID/g
  tissue uptake at 48 h: 1.21 ± 0.18 %ID/g
[2]; [8]
  tissue uptake at 4 h: 0.08 ± 0.01 %ID/g
  tissue uptake at 24 h: 0.11 ± 0.02 %ID/g
[2]; [9]
  tissue uptake at 4 h: 0.04 %ID/g
  tissue uptake at 24 h: 0.03 %ID/g
  tissue uptake at 48 h: 0.03 %ID/g
[2]; [10]
  tissue uptake at 24 h: 1.88 ± 0.11 %ID/g
  tissue uptake at 48 h: 1.04 ± 0.07 %ID/g
[2]; [11]
  tissue uptake at 4 h: 0.2 ± 0.01 %ID/g
  tissue uptake at 24 h: 0.16 ± 0.02 %ID/g
  tissue uptake at 48 h: 0.12 ± 0.01 %ID/g
[2]; [12]
  tissue uptake at 4 h: 0.07 ± 0.02 %ID/g
  tissue uptake at 24 h: 0.04 %ID/g
  tissue uptake at 48 h: 0.03 %ID/g
[2]; [13]
  tissue uptake at 4 h: 0.05 ± 0.01 %ID/g
  tissue uptake at 24 h: 0.03 %ID/g
  tissue uptake at 48 h: 0.03 %ID/g
[2]; [14]
  tissue uptake at 4 h: 0.11 ± 0.03 %ID/g
  tissue uptake at 24 h: 0.06 %ID/g
  tissue uptake at 48 h: 0.06 %ID/g
[2]; [15]
  tissue uptake at 4 h: 0.11 ± 0.01 %ID/g
  tissue uptake at 24 h: 0.1 ± 0.01 %ID/g
  tissue uptake at 48 h: 0.09 ± 0.01 %ID/g
[2]; [16]
  tissue uptake at 4 h: 0.17 ± 0.08 %ID/g
  tissue uptake at 24 h: 0.16 ± 0.02 %ID/g
  tissue uptake at 48 h: 0.07 %ID/g
MC1R (HBL cells)
  IC50: 3.03 ± 0.59 nM
MC1R (B16-F1 cells)
  IC50: 2.32 ± 0.8 nM
